Patent US8952024B2, “Herbicidal pyrimidone derivatives” (E I du Pont de Nemours and Company, priority 2009, dated 2015)

How the values were obtained:
Assay type in all cases: in vivo
[1] = system: Surinam grass (Brachiaria decumbens); assay: Test B pre-/postemergence plant response; conditions: for Surinam Grass plant response rating (0 to 100 scale): postemergence, 0 is no effect, 100 is complete control, 13 to 15 days
Summary of the method: (§1)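 Response scores were assigned visually after 13 to 15 days in a greenhouse, comparing treated pots with controls on a 0–100 scale where 100 denotes complete control. Preemergence treatments went onto freshly seeded loam/sand soil; postemergence treatments onto plants 2 to 18 cm tall.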

[2] = system: bermudagrass (Cynodon dactylon); assay: Test B pre-/postemergence plant response; conditions: for Bermudagrass plant response rating (0 to 100 scale): 0 is no effect, 13 to 15 days
Summary of the method: as §1

[3] = system: downy bromegrass (Bromus tectorum); assay: Test B pre-/postemergence plant response; conditions: for Bromegrass, Downy plant response rating (0 to 100 scale): 0 is no effect, 13 to 15 days
Summary of the method: as §1

[4] = system: lambsquarters (Chenopodium album); assay: Test B pre-/postemergence plant response; conditions: for Lambsquarters plant response rating (0 to 100 scale): 0 is no effect, 13 to 15 days
Summary of the method: as §1

[5] = system: pigweed (Amaranthus retroflexus); assay: Test B pre-/postemergence plant response; conditions: for Pigweed plant response rating (0 to 100 scale): 0 is no effect, 13 to 15 days
Summary of the method: as §1

[6] = system: wheat (Triticum aestivum); assay: Test B pre-/postemergence plant response; conditions: for Wheat plant response rating (0 to 100 scale): postemergence, 0 is no effect, 100 is complete control, 13 to 15 days
Summary of the method: as §1

[7] = system: woolly cupgrass (Eriochloa villosa); assay: Test B pre-/postemergence plant response; conditions: for Cupgrass, Woolly plant response rating (0 to 100 scale): 0 is no effect, 13 to 15 days
Summary of the method: as §1

[8] = system: yellow nutsedge (Cyperus esculentus); assay: Test B pre-/postemergence plant response; conditions: for Nutsedge, Yellow plant response rating (0 to 100 scale): 0 is no effect, 13 to 15 days
Summary of the method: as §1

[9] = system: barnyardgrass (Echinochloa crus-galli); assay: Test B flooded paddy test; conditions: for Plant response rating, Flood, Barnyardgrass: 250 g ai/ha, flooded paddy test, visual rating on 0 to 100 scale (0 no effect, 100 complete control) after 13 to 15 days; for Plant response rating, Barnyardgrass: Flood (flooded paddy test), 13 to 15 days
Summary of the method: (§2)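 Flooded-pot test: water raised to 3 cm above soil when treating, compound put in the water, level unchanged thereafter. Plants were at 2 leaves. Readout after 13 to 15 days, visual, relative to controls; 0 signifies no effect and 100 complete control.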

[10] = system: ducksalad (Heteranthera limosa); assay: Test B flooded paddy test; conditions: for Plant response rating, Flood, Ducksalad: 250 g ai/ha, flooded paddy test, visual rating on 0 to 100 scale (0 no effect, 100 complete control) after 13 to 15 days; for Plant response rating, Ducksalad: Flood (flooded paddy test), 13 to 15 days
Summary of the method: as §2

[11] = system: rice (Oryza sativa); assay: Test B flooded paddy test; conditions: for Plant response rating, Flood, Rice: 250 g ai/ha, flooded paddy test, visual rating on 0 to 100 scale (0 no effect, 100 complete control) after 13 to 15 days; for Plant response rating, Rice: Flood (flooded paddy test), 13 to 15 days
Summary of the method: as §2

[12] = system: umbrella sedge (Cyperus difformis); assay: Test B flooded paddy test; conditions: for Plant response rating, Flood, Sedge, Umbrella: 250 g ai/ha, flooded paddy test, visual rating on 0 to 100 scale (0 no effect, 100 complete control) after 13 to 15 days; for Plant response rating, Sedge, Umbrella: Flood (flooded paddy test), 13 to 15 days
Summary of the method: as §2

[13] = Postemergence, 125 g ai/ha, scale 0 to 100 (0 no effect, 100 complete control)
[14] = Postemergence, 250 g ai/ha, scale 0 to 100 (0 no effect, 100 complete control)
[15] = Preemergence, 31 g ai/ha, scale 0 to 100 (0 no effect, 100 complete control)
[16] = Preemergence, 62 g ai/ha, scale 0 to 100 (0 no effect, 100 complete control)
[17] = Preemergence, 125 g ai/ha, scale 0 to 100, 0 no effect, 100 complete control
[18] = Preemergence, 250 g ai/ha, 0 to 100 scale
[19] = 31 g ai/ha, postemergence, scale 0 to 100, 0 is no effect, 100 is complete control
[20] = 62 g ai/ha, postemergence, 100 is complete control
[21] = 62 g ai/ha, scale of 0 to 100 where 0 is no effect and 100 is complete control
[22] = Postemergence, 31 g ai/ha, 0 to 100 scale (0 no effect, 100 complete control)
[23] = 125 g ai/ha, scale 0 to 100, 0 is no effect, 100 is complete control
[24] = Flood, 31 g ai/ha, scale 0 to 100 (0 no effect, 100 complete control)

COCCCn1c(-c2cc(F)cc(F)c2)ncc(C(=O)C2=C(O)CCCC2=O)c1=O [Compound 120]
80: Plant response rating, Bermudagrass [2, 19] | Plant response rating, Bromegrass, Downy [3, 14] | Plant response rating, Lambsquarters [4, 19]
95: Bermudagrass plant response rating (0 to 100 scale) [2, 20] | Plant response rating, Pigweed [5, 19] | Plant response rating, Pigweed [5, 15]
60: Bromegrass, Downy plant response rating (0 to 100 scale) [3, 20] | Plant response rating, Bromegrass, Downy [3, 13] | Plant response rating, Wheat [6, 13]
10: Plant response rating, Bromegrass, Downy [3, 15]
50: Plant response rating, Cupgrass, Woolly [7, 15]
5: Plant response rating, Nutsedge, Yellow [8, 19]
20: Plant response rating, Bromegrass, Downy [3, 19] | Plant response rating, Barnyardgrass [9, 21]
65: Plant response rating, Nutsedge, Yellow [8, 13] | Plant response rating, Flood, Barnyardgrass [9]
75: Cupgrass, Woolly plant response rating (0 to 100 scale) [7, 20] | Plant response rating, Cupgrass, Woolly [7, 17] | Plant response rating, Nutsedge, Yellow [8, 14] | Plant response rating, Flood, Sedge, Umbrella [12]
35: Nutsedge, Yellow plant response rating (0 to 100 scale) [8, 20]
100: Plant response rating, Surinam Grass [1, 13] | Plant response rating, Surinam Grass [1, 14] | Plant response rating, Surinam Grass [1, 15] | Plant response rating, Surinam Grass [1, 16] | Plant response rating, Surinam Grass [1, 17] | Surinam Grass plant response rating [1, 18] | Plant response rating, Bermudagrass [2, 15] | Plant response rating, Bermudagrass [2, 16] | Plant response rating, Bermudagrass [2, 17] | Bermudagrass plant response rating ([2]; Preemergence, 250 g ai/ha, 0 to 100 scale, 0 no effect, 100 complete control) | Plant response rating, Lambsquarters [4, 14] | Plant response rating, Lambsquarters [4, 15] | Plant response rating, Lambsquarters [4, 16] | Plant response rating, Lambsquarters [4, 17] | Lambsquarters plant response rating [4, 18] | Plant response rating, Pigweed [5, 13] | Plant response rating, Pigweed [5, 14] | Plant response rating, Pigweed [5, 16] | Plant response rating, Pigweed [5, 17] | Pigweed plant response rating [5, 18] | Plant response rating, Cupgrass, Woolly [7, 13] | Plant response rating, Cupgrass, Woolly [7, 14]
90: Cupgrass, Woolly plant response rating [7, 18] | Plant response rating, Nutsedge, Yellow [8, 16]
40: Wheat plant response rating (0 to 100 scale) ([6]; 62 g ai/ha) | Plant response rating, Flood, Rice [11] | Plant response rating, Sedge, Umbrella [12, 21]
98: Plant response rating, Bermudagrass [2, 13] | Plant response rating, Bermudagrass [2, 14] | Plant response rating, Lambsquarters [4, 13] | Pigweed plant response rating (0 to 100 scale) [5, 20] | Plant response rating, Nutsedge, Yellow [8, 17] | Nutsedge, Yellow plant response rating [8, 18]
25: Plant response rating, Wheat [6, 17]
70: Plant response rating, Cupgrass, Woolly [7, 19] | Plant response rating, Cupgrass, Woolly [7, 16] | Plant response rating, Nutsedge, Yellow [8, 15]
85: Surinam Grass plant response rating (0 to 100 scale) ([1]; 62 g ai/ha) | Bromegrass, Downy plant response rating [3, 18] | Lambsquarters plant response rating (0 to 100 scale) [4, 20] | Plant response rating, Flood, Ducksalad [10]
0: Plant response rating, Wheat [6, 15] | Plant response rating, Wheat [6, 16] | Plant response rating, Rice [11, 21]
30: Plant response rating, Bromegrass, Downy [3, 16] | Plant response rating, Bromegrass, Downy [3, 17] | Wheat plant response rating [6, 18] | Plant response rating, Ducksalad [10, 21]

CCCCn1c(-c2cc(F)cc(F)c2)ncc(C(=O)C2=C(O)CCCC2=O)c1=O [Compound 121]
70: Plant response rating, Flood, Barnyardgrass [9] | Plant response rating, Flood, Sedge, Umbrella [12]
50: Bromegrass, Downy plant response rating (0 to 100 scale) [3, 20] | Plant response rating, Nutsedge, Yellow [8, 14]
55: Plant response rating, Flood, Rice [11]
90: Plant response rating, Bromegrass, Downy [3, 14]
100: Surinam Grass plant response rating (0 to 100 scale) ([1]; 62 g ai/ha) | Plant response rating, Surinam Grass [1, 13] | Plant response rating, Surinam Grass [1, 14] | Plant response rating, Bermudagrass [2, 13] | Plant response rating, Bermudagrass [2, 14] | Lambsquarters plant response rating (0 to 100 scale) [4, 20] | Plant response rating, Lambsquarters [4, 13] | Plant response rating, Lambsquarters [4, 14] | Plant response rating, Pigweed [5, 19] | Pigweed plant response rating (0 to 100 scale) [5, 20] | Plant response rating, Pigweed [5, 13] | Plant response rating, Pigweed [5, 14] | Cupgrass, Woolly plant response rating (0 to 100 scale) [7, 20] | Plant response rating, Cupgrass, Woolly [7, 13] | Plant response rating, Cupgrass, Woolly [7, 14]
98: Bermudagrass plant response rating (0 to 100 scale) [2, 20]
5: Plant response rating, Nutsedge, Yellow [8, 19]
0: Plant response rating, Rice [11, 21]
45: Wheat plant response rating (0 to 100 scale) ([6]; 62 g ai/ha) | Plant response rating, Wheat [6, 13] | Nutsedge, Yellow plant response rating (0 to 100 scale) [8, 20] | Plant response rating, Nutsedge, Yellow [8, 13] | Plant response rating, Ducksalad [10, 21]
95: Plant response rating, Bermudagrass [2, 19] | Plant response rating, Lambsquarters [4, 19] | Plant response rating, Cupgrass, Woolly [7, 19]
30: Plant response rating, Barnyardgrass [9, 21] | Plant response rating, Sedge, Umbrella [12, 21]
25: Plant response rating, Bromegrass, Downy [3, 19]
80: Plant response rating, Bromegrass, Downy [3, 13] | Plant response rating, Flood, Ducksalad [10]

COCCn1c(-c2cccc(F)c2)ncc(C(=O)C2=C(O)CCCC2=O)c1=O [Compound 123]
10: Plant response rating, Bromegrass, Downy [3, 13] | Plant response rating, Wheat [6, 22]
70: Plant response rating, Flood, Barnyardgrass [9] | Plant response rating, Sedge, Umbrella [12, 21]
45: Plant response rating, Bromegrass, Downy [3, 14] | Cupgrass, Woolly plant response rating (0 to 100 scale) [7, 20]
15: Wheat plant response rating (0 to 100 scale) ([6]; 62 g ai/ha) | Plant response rating, Wheat [6, 13]
98: Plant response rating, Bermudagrass [2, 14] | Plant response rating, Lambsquarters [4, 13] | Plant response rating, Lambsquarters [4, 14] | Pigweed plant response rating (0 to 100 scale) [5, 20]
40: Plant response rating, Barnyardgrass [9, 21] | Plant response rating, Flood, Rice [11] | Sedge, Umbrella plant response rating [12, 24]
65: Plant response rating, Nutsedge, Yellow [8, 22]
95: Lambsquarters plant response rating (0 to 100 scale) [4, 20] | Plant response rating, Flood, Ducksalad [10]
85: Plant response rating, Surinam Grass [1, 13] | Plant response rating, Surinam Grass [1, 14] | Bermudagrass plant response rating (0 to 100 scale) [2, 20] | Plant response rating, Flood, Sedge, Umbrella [12]
80: Plant response rating, Bermudagrass [2, 22] | Plant response rating, Lambsquarters [4, 22] | Plant response rating, Pigweed [5, 22] | Plant response rating, Nutsedge, Yellow [8, 14] | Plant response rating, Ducksalad [10, 21]
0: Plant response rating, Bromegrass, Downy [3, 22] | Rice plant response rating [11, 24]
5: Bromegrass, Downy plant response rating (0 to 100 scale) [3, 20]
75: Surinam Grass plant response rating (0 to 100 scale) ([1]; 62 g ai/ha) | Plant response rating, Cupgrass, Woolly [7, 13] | Nutsedge, Yellow plant response rating (0 to 100 scale) [8, 20] | Plant response rating, Nutsedge, Yellow [8, 13] | Plant response rating, Sedge, Umbrella [12, 23]
55: Plant response rating, Barnyardgrass [9, 23]
100: Plant response rating, Pigweed [5, 13] | Plant response rating, Pigweed [5, 14]
90: Plant response rating, Bermudagrass [2, 13] | Plant response rating, Cupgrass, Woolly [7, 14] | Plant response rating, Ducksalad [10, 23]
20: Plant response rating, Rice [11, 21]
30: Barnyardgrass plant response rating [9, 24] | Ducksalad plant response rating [10, 24] | Plant response rating, Rice [11, 23]
25: Plant response rating, Surinam Grass [1, 22] | Plant response rating, Cupgrass, Woolly [7, 22]
